Data: patent US20230064254A1, “THERAPEUTIC AGENT CONTAINING FUSED PYRIMIDINE COMPOUND AS ACTIVE INGREDIENT” (TAIHO PHARMACEUTICAL CO., LTD., priority 2019, published 2023)

Experiments:
[1] = test system: HIGA mice; assay: Inhibition of decrease in renal function in IgA nephropathy mouse models (HIGA mice), blood urea nitrogen; format: in vivo; settings: for blood urea nitrogen level (BUN), compared with the vehicle group: 10 mpk orally once a day for 6 weeks, FIG. 3, 10 mg/kg
Procedure: The present test was carried out, using HIGA mice that had been reported as mouse models of IgA nephropathy (Muso et al., Kidney International 1996 50: 1946-1957). A vehicle, a fumarate of Compound 1, or Ibrutinib (Comparative Example 1) was orally administered to 14-week-old to 16-week-old HIGA mice (Japan SLC, Inc.) once a day, continuously for 6 weeks. The control mice were not IgA nephropathy mouse models (HIGA mice), but were Balb/c mice (Japan SLC, Inc.) with the same age in weeks as described above. The vehicle was 0.5% HPMC. The daily doses were set as the following: the vehicle: 10 ml/kg, the fumarate of Compound 1: 10 mpk, and Ibrutinib: 30 mpk. […] Peripheral blood was collected from […], and the urea nitrogen level in the blood was measured. Using UREA NITROGEN (BUN) Colorimetric Detection Kit (Arbor Assays), the urea nitrogen level in the blood was measured.

[2] = test system: mouse B cells; assay: Effect of inhibiting IgG production in mouse B cells; format: cell-based; settings: CD43-negative B cells from BALB/c mouse spleen, anti-CD40 antibody and IL-4 stimulation, cultured 8 days, ELISA; FIG. 1
Procedure: The present test was carried out with reference to the Non-Patent literature (Castigli et al., J Allergy Clin Immunol 2007 120(4): 885-91). A CD43-negative B cell fraction was separated from the spleen collected from BALB/c mice, and was then suspended in a 10% FBS-containing RPMI1640 culture medium, to which an anti-CD40 antibody and IL-4 had been added. A fumarate of Compound 1 was serially diluted with DMSO, and was then added to a plate, at the same time as the seeding of the cells onto the plate. A 10% FBS-containing RPMI culture medium, to which neither an anti-CD40 antibody nor IL-4 had been added, was used as a control. DMSO, which was added to a plate at the same time as the seeding of the cells on the plate, was defined as a vehicle. The cells were cultured for 8 days at 37° C. in a CO2 incubator, and thereafter, a culture supernatant was recovered. Using an anti-IgG antibody ELISA kit (Thermo Fisher Scientific), the IgG concentration in the culture supernatant was measured.

[3] = test system: Human monocytic cells THP-1; assay: Inhibition of TNFα cytokine production by IgG stimulation; format: cell-based; settings: THP-1 cells on solid-phased human IgG, cultured 4 hours, ELISA; FIG. 2
Procedure: The present test was carried out with reference to the Non-Patent literature (Chang et al., Arthritis Res Ther 2011 13(4): R115). Human monocytic cells THP-1 suspended in a 10% FBS-containing RPMI1640 culture medium were seeded on a 96-well plate, on which human IgG had been solid-phased. A fumarate of Compound 1 was serially diluted with DMSO, and was then added to the plate, on which the cells had been seeded. The cells seeded into a well of the plate, in which IgG had not been solid-phased, were used as a control. DMSO, which was added to the plate at the same time as the seeding of the cells, was defined as a vehicle. The cells were cultured for 4 hours at 37° C. in a CO2 incubator, and thereafter, a culture supernatant was recovered. Using an anti-TNFα ELISA kit (R & D system), the concentration of TNFα in the culture supernatant was measured.

[4] = AUC comparison of fumarate of Compound 1 and Ibrutinib; format: in vivo; settings: fumarate of Compound 1 (1 mpk) compared with Ibrutinib (3 mpk)

Row | AUC values [4] | Compound | blood urea nitrogen level (BUN), compared with the vehicle group [1] | medicinal effects in HIGA mice (blood urea nitrogen level) ([1]; orally once a day for 6 weeks, fumarate of Compound 1 10 mpk, Ibrutinib 30 mpk) | IgG concentration in the culture supernatant (IgG production) [2] | concentration of TNFα in the culture supernatant (TNFα production) [3] | blood urea nitrogen level (BUN), compared with Comparative Example 1 (Ibrutinib) ([1]; fumarate of Compound 1 10 mpk vs Ibrutinib 30 mpk, orally once a day for 6 weeks, FIG. 3)
1 | – | C=CC(=O)N1CCC[C@@H](n2nc(C(=O)Nc3nc4ccccc4o3)c3c(N)ncnc32)C1 [Compound 1, (R)-1-(1-acryloylpiperidin-3-yl)-4-amino-N-(benzo[d]oxazol-2-yl)-1H-pyrazolo[3,4-d]pyrimidine-3-carboxamide] | significantly reduce the blood urea nitrogen level (BUN) | exhibited excellent medicinal effects | inhibited IgG production in a dose-dependent manner | inhibited TNFα production in a dose-dependent manner | –
2 | equivalent AUC values | C=CC(=O)N1CCC[C@@H](n2nc(-c3ccc(Oc4ccccc4)cc3)c3c(N)ncnc32)C1 [Ibrutinib, reference compound] | – | – | – | – | –
3 | equivalent AUC values | C=CC(=O)N1CCC[C@@H](n2nc(C(=O)Nc3nc4ccccc4o3)c3c(N)ncnc32)C1 [fumarate of Compound 1, (R)-1-(1-acryloylpiperidin-3-yl)-4-amino-N-(benzo[d]oxazol-2-yl)-1H-pyrazolo[3,4-d]pyrimidine-3-carboxamide] | inhibits an increase in the blood urea nitrogen level | – | – | – | significantly reduces the blood urea nitrogen level
